Experimental data from patent publication US20230241185A1, “COMPOSITION COMPRISING A DNA-DEGRADING ENZYME FOR USE IN A METHOD FOR THE TREATMENT OF IMMUNOSUPPRESSION AFTER ACUTE TISSUE INJURY” (Klinikum der Universität München, priority 2020, published 2023).
Residues, ends and D or L forms follow the SMILES beside them. *: point of attachment. Cbz = O=C(OCc1ccccc1)*; CH2F = FC*

Assays:
[1] = tested on: splenic CD3^+ T cells; assay: Splenic T cell counts by FACS after experimental stroke; format: in vivo, mice; details: i.p. 30 minutes after stroke surgery; Z-IETD-FMK 0.8 mg kg^−1, Z-LEHD-FMK; normalized to sham
From the text: (§1) Mice were anaesthetized with isoflurane delivered in a mixture of 30% O2 and 70% N2O. An incision was made between the ear and the eye in order to expose the temporal bone. Mice were placed in supine position, and a laser Doppler probe was affixed to the skull above the middle cerebral artery (MCA) territory. The common carotid artery and left external carotid artery were exposed via midline incision and further isolated and ligated. A 2-mm silicon-coated filament (Doccol) was inserted into the internal carotid artery, advanced gently to the MCA until resistance was felt, and occlusion was confirmed by a corresponding decrease in blood flow (i.e., a decrease in the laser Doppler flow signal by 80%. After 60 minutes of occlusion, the animals were re-anesthetized, and the filament was removed. After recovery, the mice were kept in their home cage with ad libitum access to water and food. Sham-operated mice received the same surgical procedure, but the filament was […] in lieu of being advanced to the MCA. Body temperature was maintained at 37° C. throughout surgery in all mice via feedback-controlled heating pad. The overall mortality rate of animals subjected to MCA occlusion was approximately 20%. All animals in the sham group survived the procedure. Exclusion criteria: 1. Insufficient MCA occlusion (a reduction in blood flow to […] of the baseline value). 2. Death during the surgery. 3. Lack of brain ischemia as quantified post-mortem by histological analysis.
Anti-IL1β: Mice received two injections of antagonizing anti-IL-1β in sterile saline (clone: B122, InVivoMab, BioXcell, US), 1 hour prior to and 1 hour after surgery. Anti-IL-1β or the corresponding IgG control (Armenian hamster IgG, InVivoMab, BioXcell, US) was injected i.p. at a dose of 4 mg kg^−1 body weight in a final volume of 200 μl.
Anti-FasL: Mice received two injections of antagonizing anti-FasL in sterile saline (clone: MFL3, InVivoMab, BioXcell, US), 1 hour prior to and 1 hour after surgery. […]

[2] = tested on: caspase-1 activity in splenic CD11b^+ monocytes; assay: FAM FLICA flow cytometry of caspase-1 activity (inflammasome activation) in splenic monocytes after stroke; format: in vivo, mice; details: caspase-8 or caspase-9 inhibitor vs vehicle, 18 h after stroke, normalized to sham
From the text: as §1
Human recombinant DNase (hrDNase): 1000 U of human recombinant DNase (Roche, Switzerland) dissolved in incubation 1× buffer (40 mM Tris-HCl, 10 mM NaCl, 6 mM MgCl2, 1 mM CaCl2, pH 7.9, diluted in PBS, Roche) was injected i.v. in the tail vein 1 hour after surgery in a final volume of 100 μl. The control group was administered vehicle injections at the same volume, route, and timing as experimental animals.
Caspase-8 inhibitor (Z-IETD-FMK) & Caspase-9 inhibitor (Z-LEHD-FMK): The apoptosis inhibitors Z-IETD-FMK and Z-LEHD-FMK (R&D systems, US) in DMSO dissolved in PBS and injected i.p. 30 minutes after surgery. Z-LEHD-FMK was injected at a dose of […] body weight at a final volume of 200 μl. Z-IETD-FMK was injected at a dose of 0.8 mg kg^−1 body weight at a final volume of 100 μl. The control groups were administered vehicle injections at the same volume, route, and timing as experimental animals.
To detect the active forms of caspase-1 in blood, spleen, and bone marrow samples, cell suspensions were stained with the fluorescent inhibitor probe FAM-YVAD-FMK (FAM FLICA, BioRad, Germany) for 30 minutes at 37° C. according to the manufacturer's instructions. After washing, the cells were stained for CD45^+CD3^+ T cells and CD45^+Cd11b^+ monocytes. The flow cytometry data was acquired on a BD FACSVerse (for representative gating strategy, see FIG. 10B).

| SMILES | T cell death [1] | caspase-1 activity in splenic CD11b+ monocytes [2] | caspase-1 activity in splenic CD11b+ monocytes ([2]; listed as C8i) | caspase-1 activity in splenic CD11b+ monocytes ([2]; listed as C9i) |
| --- | --- | --- | --- | --- |
| CC[C@H](C)[C@H](NC(=O)OCc1ccccc1)C(=O)N[C@@H](CCC(=O)OC)C(=O)N[C@H](C(=O)N[C@@H](CC(=O)OC)C(=O)CF)[C@@H](C)O [Z-IETD-FMK] (Cbz-IE(OMe)TD(OMe)-CH2F) | T cell death was only reduced in mice treated with the caspase-8 | neither affected caspase-1 activation in monocytes | Neither caspase-8 nor caspase-9 inhibitor showed differences in caspase-1 activity compared to the vehicle-treated mice | – |
| COC(=O)CC[C@H](NC(=O)[C@H](CC(C)C)NC(=O)OCc1ccccc1)C(=O)N[C@@H](Cc1cnc[nH]1)C(=O)N[C@@H](CC(=O)OC)C(=O)CF [Z-LEHD-FMK] (Cbz-LE(OMe)HD(OMe)-CH2F) | – | neither affected caspase-1 activation in monocytes | – | Neither caspase-8 nor caspase-9 inhibitor showed differences in caspase-1 activity compared to the vehicle-treated mice |
